Here are results for 30 compounds from patent US5422342A, “2,3-disubstituted isoxazolidines, agents containing them and their use” (Hoechst Aktiengesellschaft, priority 1986, dated 1995).

Assay [1] addresses prolyl hydroxylase (Homo sapiens, UniProt P13674). Put plainly: prolyl hydroxylase enzyme assay with preincubation (suicide inhibition). In kind it is biochemical. To be noted: concentration which inactivates 50% of the enzyme after one hour; preincubation with iron(II) ions, α-ketoglutarate and ascorbate. The procedure: The inhibitory action can be determined in an enzyme assay analogous to the method of B. Peterkofsky and R. DiBlasio Anal. Biochem. 66, 279-286 (1975). This entails underhydroxylated collagen being enzymatically hydroxylated with prolyl hydroxylase in the presence of iron(II) ions, α-ketoglutarate and ascorbate.
The suicidal nature of the inhibition is established by preincubation of the enzyme in the presence of iron(II) ions, α-ketoglutarate and ascorbate with the inhibitors for various times, and then determination of the remaining activity of the enzyme in the presence of a peptide substrate. It is possible to use for determination of the activity both the method of Peterkofsky and DiBlasio described above and other methods such as described by K. I. Kivirikko and R. Myllyla, Meth. Enzym. 82, 245-304 (1982). The concentration which inactivates 50% of the enzyme after one hour is stated.

The subject of assay [2] is calvarial culture. The assay is described as follows: inhibitory action in calvarial culture (hydroxyproline/proline quotient). Type of assay: cell-based. Conditions: concentration giving 50% decrease in the hydroxyproline/proline quotient on feeding with 14C-proline. The text has this: The inhibitory action can also be determined in cell or tissue culture. It is possible to use for this purpose fibroblasts or other collagen-producing cells, or calvariae or other collagen-producing organs. Table 2 is a compilation of the inhibitory action of some substances according to the invention in calvarial culture. The concentration which results in a 50% decrease in the hydroxyproline/proline quotient on feeding with ^14 C-proline is stated.

Assay [3] deals with C1q biosynthesis by macrophages. Conditions: W. Muller et al., FEBS Lett. 90, 218f (1978); cited from earlier work.

Several values for one entry are separate records, joined by “and”; a condition that tells them apart may be missing. Equal values may be shown once.

Sequence of prolyl hydroxylase (P13674 18-534): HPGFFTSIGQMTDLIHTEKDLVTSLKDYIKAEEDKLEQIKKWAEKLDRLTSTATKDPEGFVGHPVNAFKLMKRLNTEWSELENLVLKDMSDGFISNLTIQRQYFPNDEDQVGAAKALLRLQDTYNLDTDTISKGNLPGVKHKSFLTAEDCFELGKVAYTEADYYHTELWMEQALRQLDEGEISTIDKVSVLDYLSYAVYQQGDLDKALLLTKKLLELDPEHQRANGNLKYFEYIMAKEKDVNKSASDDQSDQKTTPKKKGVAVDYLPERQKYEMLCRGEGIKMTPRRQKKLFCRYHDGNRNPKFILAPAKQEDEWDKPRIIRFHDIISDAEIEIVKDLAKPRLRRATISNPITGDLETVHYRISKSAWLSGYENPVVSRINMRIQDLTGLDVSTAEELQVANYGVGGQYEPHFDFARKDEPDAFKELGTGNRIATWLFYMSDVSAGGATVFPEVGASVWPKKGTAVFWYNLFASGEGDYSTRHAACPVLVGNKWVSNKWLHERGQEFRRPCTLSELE
Sequence of prolyl hydroxylase (P07237 18-508 partner): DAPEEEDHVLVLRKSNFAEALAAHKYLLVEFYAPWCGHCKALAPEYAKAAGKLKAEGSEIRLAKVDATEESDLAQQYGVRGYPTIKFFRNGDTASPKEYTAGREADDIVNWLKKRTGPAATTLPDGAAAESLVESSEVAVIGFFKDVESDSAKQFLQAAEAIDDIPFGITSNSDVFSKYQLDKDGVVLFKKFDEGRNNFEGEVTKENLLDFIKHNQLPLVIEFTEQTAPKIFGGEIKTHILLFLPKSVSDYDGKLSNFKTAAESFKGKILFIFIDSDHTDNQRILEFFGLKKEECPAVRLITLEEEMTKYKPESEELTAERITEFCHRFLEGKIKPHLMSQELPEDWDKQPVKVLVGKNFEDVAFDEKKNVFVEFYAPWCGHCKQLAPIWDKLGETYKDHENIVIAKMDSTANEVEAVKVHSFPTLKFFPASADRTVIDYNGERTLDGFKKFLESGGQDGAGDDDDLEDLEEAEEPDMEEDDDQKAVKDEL

Consider `CCN(CC)C(=O)CNC(=O)C1CCON1C(=O)C1CCCN1C(C)=O` (centres unmarked) [Ac--Pro--Opr--Gly--N(C2 H5)2], for which, in assay [1], the “ID50 [60 min; μmol/l]” value is 16900.0 µmol/L.
On to `O=C(CNC(=O)C1CCON1C(=O)C(Cc1ccccc1)NC(=O)OCc1ccccc1)OCc1ccc(F)cc1` (centres unmarked) [Z--Phe--Opr--Gly--O--CH2 --C6 H4-4-F], for which, in assay [1], the “ID50 [60 min; μmol/l]” value was found to be 0.8 µmol/L.
Same read-out and setting: the result for `CN(CC(=O)OCc1ccccc1)C(=O)C1CCON1C(=O)C(Cc1ccccc1)NC(=O)OCc1ccccc1` (centres unmarked) [Z--Phe--Opr--Sar-- OBzl, Z--Phe--Opr--Sar--OBzl] reads > 10000.0 µmol/L; that for `O=C(NC(Cc1ccccc1)C(=O)N1OCCC1C(=O)NCC(=O)c1ccccc1)OCc1ccccc1` (centres unmarked) [Z--Phe--Opr--NH--CH2 --CO--C6 H5, ZPheOprNHCH2 COC6 H5], 2.4 µmol/L.
As a reminder, the IC50 is the midpoint of a concentration-inhibition curve. Low values mean higher potency, high ones lower potency. For `CC(C)(C)OC(=O)CNC(=O)C1CCON1C(=O)C1CCCN1C(=O)OCc1ccccc1` (centres unmarked) [Z--Pro--Opr--Gly--OtBu], the IC50 in assay [2] was determined as 550 µM.
Regarding `N#Cc1ccc(C(=O)CNC(=O)C2CCON2C(=O)C(Cc2ccccc2)NC(=O)OCc2ccccc2)cc1` (centres unmarked) [Z--Phe--Opr--NH--CH2 --CO--C6 H4-4-CN, ZPheOprNHCH2 COC6 H4-4-CN], the “ID50 [60 min; μmol/l]” value in assay [1] is 1.1 µmol/L.
Still for that read-out and setting: for `O=C(CNC(=O)C1CCON1C(=O)CCc1ccccc1)OCc1ccccc1` (centres unmarked) [C6 H5 --CH2 --CH2 --CO--Opr--Gly--OBzl, N-3-Phenylpropionyl-Opr--Gly--OBzl] the value was 2000.0 µmol/L; for “HPheOprNHCH2 COC6 H4 -4-Cl [H--Phe--Opr--NH--CH2 --CO--C6 H4-4-Cl]”, 15.5 µmol/L.
For the compound `c1ccc(-c2ccccn2)nc1` [α,α-dipyridyl], in assay [3], the “effect on C1q biosynthesis by macrophages” value is “inhibition of C1q biosynthesis by macrophages”.
`O=C(CNC(=O)C1CCON1C(=O)C(Cc1ccc(O)cc1)NC(=O)OCc1ccccc1)OCc1ccccc1` (centres unmarked) [Z--Tyr--Opr--Gly--OBzl]: the “ID50 [60 min; μmol/l]” value in assay [1] is 2.4 µmol/L.
The same measure, in the same setting: for `CC(NC(=O)OCc1ccccc1)C(=O)N1OCCC1C(=O)NCC(=O)OC(C)(C)C` (centres unmarked) [Z--Ala--Opr--Gly--OtBu, Z--Ala--Opr--Gly--OtBU] the value was 40.0 µmol/L; for `O=C(CNC(=O)C1CCON1C(=O)C1Cc2ccccc2CN1C(=O)OCc1ccccc1)OCc1ccccc1` (centres unmarked) [Z--Tic--Opr--Gly--OBzl], 1.5 µmol/L.
The compound `CC(=O)N1CCCC1C(=O)N1OCCC1C(=O)NCC(=O)OC(C)(C)C` (centres unmarked) [Ac--Pro--Opr--Gly--OtBu] returned an IC50 in assay [2] of 7500 µM. Besides, the “ID50 [60 min; μmol/l]” value in assay [1] was determined as 8000.0 µmol/L.
Take `O=C(CNC(=O)C1CCON1C(=O)C(Cc1ccccc1)NC(=O)OCc1ccccc1)OCCc1ccccc1` (centres unmarked) [Z--Phe--Opr--Gly--O--CH2 --CH2 --C6 H5]: the “ID50 [60 min; μmol/l]” value in assay [1] was found to be 0.9 µmol/L.
`CC(C)C(NC(=O)OCc1ccccc1)C(=O)N1OCCC1C(=O)NCC(=O)OCc1ccccc1` (centres unmarked) [Z--Val--Opr--Gly--OBzl] returned an IC50 in assay [2] of 380 µM. The “ID50 [60 min; μmol/l]” value in assay [1] is 40.0 µmol/L.
As for `CS(=O)(=O)CCOC(=O)NC(CCC(=O)OCc1ccccc1)C(=O)N1OCCC1C(=O)NCC(=O)OCc1ccccc1` (centres unmarked) [Msc--Glu(OBzl)--Opr--Gly--OBzl], in assay [1], the “ID50 [60 min; μmol/l]” value was found to be 30.0 µmol/L.
`O=C(CNC(=O)C1CCON1C(=O)C(Cc1ccccc1)NC(=O)OCc1ccccc1)OCc1ccccc1` (stereo not drawn) [Z--Phe--Opr--Gly--OBzl, Z-Phe-Opr-Gly-OBzl]: in assay [1], the “ID50 [60 min; μmol/l]” value was 0.8 µmol/L.
For the compound `O=C(CNC(=O)C1CCON1Cc1ccccc1)OCc1ccccc1` (stereo not drawn) [C6 H5 --CH2 --Opr--Gly--OBzl, C6 H5 --CH2 -Opr-Gly-OBzl], in assay [1], the “ID50 [60 min; μmol/l]” value amounted to 610.0 µmol/L.
Consider `CC(=O)N1CCCC1C(=O)N1OCCC1C(=O)NCC(=O)NCc1ccccc1` (centres unmarked) [Ac--Pro--Opr--Gly--NH--CH2 --C6 H5], for which the “ID50 [60 min; μmol/l]” value in assay [1] was found to be 6000.0 µmol/L.
Same read-out and setting: the result for `CC(=O)N1CCCC1C(=O)N1OCCC1C(=O)NCC(=O)OCc1ccccc1` (centres unmarked) [Ac--Pro--Opr--Gly--OBzl] reads 60.0 µmol/L; that for `O=C(CCc1ccccc1)CNC(=O)C1CCON1C(=O)C(Cc1ccccc1)NC(=O)OCc1ccccc1` (stereo not drawn) [Z-Phe-Opr-NH--CH2 --CO--CH2 --CH2 --C6 H5], 3.4 µmol/L.
Take `CC(NC(=O)OCc1ccccc1)C(=O)N1OCCC1C(=O)NCC(=O)O` (centres unmarked) [Z--Ala--Opr--Gly--OH]: in assay [1], the “ID50 [60 min; μmol/l]” value is 330.0 µmol/L.
In the case of `O=C(O)CCC(NC(=O)OCc1ccccc1)C(=O)N1OCCC1C(=O)NCC(=O)OCc1ccccc1` (centres unmarked) [Z--Glu--Opr--Gly--OBzl], in assay [1], the “ID50 [60 min; μmol/l]” value amounted to 5000.0 µmol/L.
Same read-out and setting: the result for `O=C(CNC(=O)C1CCON1C(=O)C(CCCCN1C(=O)c2ccccc2C1=O)NC(=O)OCc1ccccc1)OCc1ccccc1` (centres unmarked) [Z--Lys(Pht)--Opr--Gly--OBzl] reads 11.0 µmol/L; that for `CC(=O)N1CCCC1C(=O)N1OCCC1C(=O)NCC(=O)NCCc1ccccc1` (centres unmarked) [Ac--Pro--Opr--Gly--NH--CH2 --CH2 --C6 H5], 4900.0 µmol/L.
The compound `O=C(CNC(=O)C1CCON1C(=O)Cc1ccccc1)OCc1ccc([N+](=O)[O-])cc1` (centres unmarked) [4-Nitrobenzyl ester of N-phenylacetyl-Opr-Gly] returned an IC50 in assay [2] of 2500 µM. Moreover, in assay [1], the “ID50 [60 min; μmol/l]” value was 540.0 µmol/L.
The matching figures for `O=C(CNC(=O)C1CCON1C(=O)Cc1ccccc1)OCc1ccccc1` (centres unmarked) [C6 H5 --CH2 --CO--Opr--Gly--OBzl]: 2000 µM and 1000.0 µmol/L.
For `CC(NC(=O)OCc1ccccc1)C(=O)N1OCCC1C(=O)NCC(=O)OCc1ccccc1` (centres unmarked) [Z--(D)--Ala--Opr--Gly--OBzl, Z--(D)-- Ala--Opr--Gly--OBzl], the “ID50 [60 min; μmol/l]” value in assay [1] was > 10000.0 µmol/L.
With “Z-Phe(r)-Opr-Gly-OBzl [Z--Phe(r)--Opr--Gly--OBzl]”, the “ID50 [60 min; μmol/l]” value in assay [1] came out at 1.1 µmol/L.
For the compound `C[C@H](NC(=O)OCc1ccccc1)C(=O)N1OCCC1C(=O)NCC(=O)OCc1ccccc1` (some centres unmarked) [Z--Ala--Opr--Gly--OBzl], the IC50 in assay [2] was 1650 µM and 2500 µM. Also, the “ID50 [60 min; μmol/l]” value in assay [1] worked out at 3.0 µmol/L.
